The record followed here is patent US5418238A, “17β-substituted 4-aza-5α-androstan-3-one derivatives” (Farmitalia Carlo Erba S.R.L., priority 1992, dated 1995).

Test [1] addresses T1, 5α-reductase (Homo sapiens, UniProt P31213).
T1 construct: particulate fraction from homogenates of hyperplastic human prostates as the enzyme source; from tissue; host or cells: hyperplastic human prostate, particulate fraction (140,000 x g pellet of homogenate)
T1 sequence (P31213 1-254): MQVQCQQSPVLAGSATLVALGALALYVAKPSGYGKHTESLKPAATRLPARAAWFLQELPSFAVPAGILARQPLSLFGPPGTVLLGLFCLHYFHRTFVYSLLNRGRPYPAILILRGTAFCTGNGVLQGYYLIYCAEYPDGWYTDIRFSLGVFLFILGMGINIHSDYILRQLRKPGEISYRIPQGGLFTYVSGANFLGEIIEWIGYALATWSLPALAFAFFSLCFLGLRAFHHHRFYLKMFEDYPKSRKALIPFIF
As to the kind of experiment: In vitro assay of 5α-reductase inhibition (particulate fraction from hyperplastic human prostates, [14C]testosterone). It counts as biochemical. The following applies: human prostate particulate fraction, 1 μM [14C]testosterone, pH 5.5, 37° C., 30 min. The protocol:
Inhibition of 5α-reductase was evaluated using the particulate fraction from homogenates of hyperplastic human prostates as the enzyme source. The particulate fraction was prepared centrifuging prostate homogenate at 140,000 x g. The resulting pellet, washed several times, was resuspended in buffer and stored at -80° C. in aliquots containing ≈10 mg protein/ml.
The assay for 5α-reductase was done in a final volume of 0.5 ml, in 40 mM TRIS-HCl buffer pH 5.5, containing I mM dithiothreitol, 5 mM NADPH, 1 μM [^14 C]testosterone, an aliquot of the enzyme preparation and various concentrations of the inhibitors. After 30 min incubation at 37° C. the reaction was terminated by addition of 2 ml cold diethyl ether and the organic phase was separated, evaporated under N2 and resuspended in ethyl acetate. Testosterone metabolites in this extract were separated in TLC on silica gel F 254 plates (Merck), using chloroform, acetone and n-hexane (2:1:2) as developing solvent system. Radioactivity on the plate was scanned and analysed from quantitative plots printed by a TLC-analyzer (Berthold). The fractional 5α-reduction of testosterone was calculated by relating the ^14 C-radioactivity in the 5α-reduced metabolites (5α-dihydrotesterone, […]) regions to the total radioactivity in the testosterone and 5α-reduced metabolites regions.

For test [2], the system named is 5α-reductase. As to the kind of experiment: In vivo inhibition of 5α-reductase (testosterone-induced prostate hypertrophy in castrated rats). Set-up: species or system rat. As to conditions: castrated testosterone-implanted rats, once daily for 7 days, ventral prostate weight. The protocol: The standard test for the antiandrogenic effect in rats was used. Prepuberal 22-day-old male rats were castrated via scrotal incision under light ether anaesthesia. On the seventh day after orchiectomy, androgen replacement was performed via subcutaneous implantation of 1 cm-long Silastic® tube (Dow-Corning, model No. 602-265) filled with a mixture of 25% testosterone and 75% cholesterol. […] Twenty four hours after the last dose the rats were sacrificed and the ventral prostate was removed and weighed. Control animals (testosterone controls) received the vehicle (0.5 ml/kg of 0.5% Methocel/0.4% Tween 80). One group of castrated rats was not implanted with testosterone (castrated controls).
The mean percentage of inhibition of the T-induced hypertrophic response of the prostate was calculated according to the following formula: […]
where WTC, WCC and WI are the mean prostate weight of testosterone control, castrated control and inhibitor treated group, respectively.

`CC(C)C(NC(=O)[C@H]1CC[C@H]2[C@@H]3CC[C@H]4NC(=O)C=C[C@]4(C)[C@H]3CC[C@]12C)C(=O)C(F)(F)F` (stereo partly drawn) [Compound 7, N-[1,1,1-trifluoro-4-methyl-2-oxopent-3-yl]3-oxo-4-aza-5α-androst-1-ene-17β-carboxamide] displayed an IC50 at 5α-reductase [1] of 8 nM.
As for `CC(NC(=O)[C@H]1CC[C@H]2[C@@H]3CC[C@H]4NC(=O)C=C[C@]4(C)[C@H]3CC[C@]12C)C(=O)C(F)(F)F` (stereo partly drawn) [Compound 5, N-[1,1,1-trifluoro-2-oxobut-3-yl]3-oxo-4-aza-5α-androst-1-ene-17β-carboxamide], the IC50 on 5α-reductase [1] came out at 16 nM. In addition, the “% Inhibition of prostate weight at 3 mg/kg/day p.o.” value with 5α-reductase [2] was determined as 58%.
The like results for `CC(C)(NC(=O)[C@H]1CC[C@H]2[C@@H]3CC[C@H]4NC(=O)C=C[C@]4(C)[C@H]3CC[C@]12C)C(=O)C(F)(F)F` [Compound 22, N-[1,1,1-trifluoro-3-methyl-2-oxobut-3-yl]3-oxo-4-aza-5α-androst-1-ene-17β-carboxamide] were, in that order, 14 nM and 50%.

Broadly, the IC50 is the concentration that gives 50% inhibition.
